Assay results taken from patent US9951055B2, “Thiazole-based inhibitors of scavenger receptor BI” (THE BROAD INSTITUTE, INC., priority 2012, dated 2018).
Read-outs that look alike come from different tables or passages of the source.

How the values were obtained:
murine SR-BI [1] = target: T1, murine SR-BI (Mus musculus, UniProt Q61009); assay: DiI-HDL uptake assay with extended washout; assay type: cell-based; details: after a 4-hour washout period
T1 construct: expressed in transfected cells; host or cells: ldlA[mSR-BI]; (CHO ldlA7 derivative lacking the LDL receptor)
T1 sequence (Q61009 1-509): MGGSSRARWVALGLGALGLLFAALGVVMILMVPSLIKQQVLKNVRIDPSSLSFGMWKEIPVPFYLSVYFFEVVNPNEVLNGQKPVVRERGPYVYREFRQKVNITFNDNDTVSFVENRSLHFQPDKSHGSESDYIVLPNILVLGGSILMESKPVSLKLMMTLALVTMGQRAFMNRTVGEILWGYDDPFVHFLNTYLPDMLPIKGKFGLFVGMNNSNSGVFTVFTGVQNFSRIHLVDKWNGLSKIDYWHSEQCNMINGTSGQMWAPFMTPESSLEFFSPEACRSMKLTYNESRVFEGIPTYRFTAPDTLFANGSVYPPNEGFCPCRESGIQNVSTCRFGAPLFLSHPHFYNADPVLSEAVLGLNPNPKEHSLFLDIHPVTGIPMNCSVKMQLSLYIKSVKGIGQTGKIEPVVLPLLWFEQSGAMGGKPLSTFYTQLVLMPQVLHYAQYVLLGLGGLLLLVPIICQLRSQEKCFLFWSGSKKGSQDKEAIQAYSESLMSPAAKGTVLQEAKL
Description: DiI-HDL Uptake Assay with Extended Washout (SA 5: AID No. 602154)
This is another modification of the primary assay where cells are pretreated with compound but no compound is present during a 4-hour washout period or the subsequent 3-hour DiI-HDL treatment period. […] Cells were treated with compound for 3 hours, then were washed four times with PBS, once with lipoprotein-free media (Ham's F12/0.5% fatty acid-free Bovine Serum Albumin [BSA]/25 mM HEPES pH 7.4), and then returned to the incubator with lipoprotein-free media for 4 hours. Media were then removed and cells were washed with PBS before fresh lipoprotein-free media (Ham's F12/0.5% fatty acid-free Bovine Serum Albumin [BSA]/25 mM HEPES pH 7.4) was added with […] DiI-HDL. Cells took up the DiI via SR-BI over 3 hours in the absence of compound. After significant uptake of the DiI, the cells became fluorescent. The level of fluorescence correlates with the amount of DiI uptake and can be measured with a standard plate reader. The uptake of lipid (represented by DiI) was inhibited by the compound BLT-1 or with an excess of HDL untreated with DiI.

SR-BI = target: T2, SR-BI (Mus musculus, UniProt Q61009); assay: 125I-HDL binding assay; design: expressed in transfected cells
T2 sequence (Q61009 1-509): T1 sequence (Q61009 1-509)
Description: In a binding assay, ^125I-HDL binding to cells (4° C. or 37° C.) was measured for 2 h in the absence (total activity) or presence (nonspecific activity) of a 40-fold excess of unlabeled HDL. Stably transfected cells were seeded in the wells of 24-well plates (50,000 cells per well) in Ham's F12 medium containing 2 mM L-glutamine, 50 units/mL penicillin per 50 μg/mL streptomycin (medium A) supplemented with 5% (vol/vol) FBS and 0.25 mg/mL G418 (medium B) on day 0, and binding assays were performed on day 2. The cells were washed twice with prewarmed (37° C.) medium A plus 0.5% (wt/vol) BSA (medium C) prior to adding ^125I-HDL. For binding assays performed at 4° C., the assay plates were removed from the incubator, precooled for 30 min on ice in a cold room (4° C.), and then washed twice with cold (4° C.) medium C supplemented with 10 mM Hepes, pH 7.4, prior to adding ^125I-HDL. Specific binding or uptake is the difference between total and nonspecific activities. In assays using small molecule inhibitors (all incubations at 37° C.), immediately prior to incubation with ^125I-HDL, the cells were washed twice with medium A, preincubated with the small molecules for 1 h, and then incubated with radiolabeled lipoproteins as described above, all in medium C plus 0.5% (vol/vol) DMSO in the presence of the indicated concentrations of small molecules.

[2] = Stability in human plasma; assay type: in vitro ADME; details: after a 5-hour incubation period
Description: The stability of the probe in PBS (1% DMSO) was measured over 48 hours. We noticed that the concentration of the probe fluctuated through the course of the assay (data not shown). We believe that this fluctuation is due to the low solubility of the probe. Thus, we decided to determine the amount of undissolved probe present in the well after it was treated with PBS for a given length of time, relative to the amount of undissolved probe at the start of the assay. The wells were centrifuged and the supernatant was removed after various time points, then acetonitrile was added to dissolve the remaining solid in the wells, and the amount of probe was quantified. […] The stability of the probe was confirmed by measuring stability in human plasma, with >99% remaining after a 5-hour incubation period. […] FIG. 5 provides a tablular summary of Known Probe (ML278) Properties Computed from Structure.

murine SR-BI [3] = target: T1, murine SR-BI; assay: Compound reversibility, cellular uptake of DiI from DiI-HDL; assay type: cell-based; details: 1 hr preincubation, then 0 or 4 hr incubation in the absence of compound; read-out: IC50, reversibility test (DiI uptake)
Description: Compound reversibility was tested by measuring the cellular uptake of DiI from DiI-HDL (all incubations at 37° C.) in ldlA7 cells that were stably transfected with cDNA encoding murine SR-BI. On day 0, 50,000 cells were plated in 96-well dishes per well (Costar, black with clear, flat bottom) in Ham's F12 medium containing 2 mM L-glutamine, 50 units/mL penicillin per 50 μg/mL streptomycin (medium A) supplemented with 5% (vol/vol) FBS and 0.25 mg/mL G418 (medium B). On day 2, the cells were washed twice with prewarmed (37° C.) medium A. The cells were then preincubated with the tested compounds in 200 μL per well of medium A plus 0.5% (wt/vol) BSA plus 0.5% (vol/vol) DMSO (medium C) for 1 hr. The 1 hr preincubation was followed by either a 0 or 4 hr incubation in medium C in the absence of compound. The cells were then incubated in medium C (200 μL per well) containing 10 μg protein per mL of DiI-HDL at 37° C. for 2 h to measure DiI uptake. […] Then 50 μL PBS was added and fluorescence measurements made using a Molecular Devices SpectraMax fluorescence plate reader (excitation at 515 nm, emission at 575 nm, bottom read mode). DiI uptake was also measured in the presence of a 40-fold excess of unlabeled HDL to determine nonspecific (SR-BI-independent) uptake.

Row | Structure (SMILES) | IC50 (murine SR-BI [1]) [nM] | IC50 (SR-BI; 37° C., 1 h preincubation with compound, read-out: IC50) [nM] | IC50 (SR-BI; range, read-out: measured range of IC50) [nM] | stability in human plasma, remaining [2] [%] | IC50 (murine SR-BI [3]) [nM]
1 | CCCCCCC1CCCC1=NNC(N)=S (centres unmarked) [BLT-1, reference compound] | 0.6 |  |  |  | 
2 | COCC(=O)N1CCc2cc(-c3csc(NC(=O)c4cc(OC)cc(OC)c4)n3)ccc21 [Compound 137, 3,5-Dimethoxy-N-(4-(1-(2-methoxyacetyl)indolin-5-yl)thiazol-2-yl)benzamide] |  | 5.7 | 0.93 to 6 | > 99 | 315
